ChEMBL document CHEMBL1157904, “Discovery of pyrazolthiazoles as novel and potent inhibitors of bacterial gyrase” (Bioorg Med Chem Lett, 2010)
≈ marks a conversion by molar mass, not a printed value. Calls of active or inactive are those of the source. No cut-off for these calls is given here.

Columns and labels:
[1] = Inhibition of ATPase activity of Escherichia coli DNA gyrase B
[2] = system: Escherichia coli; assay: Antibacterial activity against wild type Escherichia coli; assay type: functional
[3] = system: Staphylococcus aureus; assay: Antibacterial activity against wild type Staphylococcus aureus; assay type: functional
[4] = system: Streptococcus pneumoniae; assay: Antibacterial activity against wild type Streptococcus pneumoniae; assay type: functional
[5] = system: Escherichia coli; assay: Antibacterial activity against tol C pump knockout Escherichia coli CAG12184; assay type: functional
[6] = system: Staphylococcus aureus; assay: Antibacterial activity against Staphylococcus aureus ATCC 29213; assay type: functional
[7] = system: Streptococcus pneumoniae; assay: Antibacterial activity against Streptococcus pneumoniae ATCC 10015; assay type: functional
[8] = (§1) Inhibition of ATPase activity of Staphylococcus aureus DNA gyrase B
[9] = system: Staphylococcus aureus; assay: as §1
[10] = Selectivity ratio of Ki for Escherichia coli DNA gyraseB to Ki for Staphylococcus aureus DNA gyraseB

| Structure (SMILES) | MIC [5] | Ki [1] | further results |
| --- | --- | --- | --- |
| CCCc1nc(-c2ccccc2)sc1-c1cc(C(=O)OCC)[nH]n1 |  | 0.8 µM |  |
| CSc1cc(-c2sc(-c3cccs3)nc2C)[nH]n1 |  | 2.9 µM |  |
| CCOC(=O)c1cc(-c2sc(-c3ccccc3)nc2N2CCOCC2)n[nH]1 |  | 0.63 µM | MIC [2]: > 64 µg/mL; MIC [3]: > 64 µg/mL; MIC [4]: > 64 µg/mL |
| CCOC(=O)c1cc(-c2sc(-c3cccnc3)nc2N2CCC(C)CC2)n[nH]1 |  | 1.05 µM | MIC [2]: > 64 µg/mL; MIC [3]: > 64 µg/mL; MIC [4]: > 64 µg/mL |
| CCOC(=O)c1cc(-c2sc(-c3cccnc3)nc2CO)n[nH]1 |  | 0.67 µM | MIC [2]: > 64 µg/mL; MIC [3]: > 64 µg/mL; MIC [4]: > 64 µg/mL |
| CCNC(=O)c1cc(-c2sc(-c3cccnc3)nc2[C@@H]2CCCN2)n[nH]1 | 32 µg/mL (≈ 86.8 µM) | 0.082 µM |  |
| CC#CCOC(=O)NCc1cc(-c2sc(-c3cccnc3)nc2N2CCCCC2)n[nH]1 | 0.5 µg/mL (≈ 1.15 µM) | < 0.004 µM | Ki [8]: 0.14 µM; Activity [2]: inactive |
| CCOC(=O)c1cc(-c2sc(-c3ccccc3)nc2-c2ccccc2)n[nH]1 |  | 0.14 µM |  |
| CSc1cc(-c2sc(-c3ccccc3)nc2C)n[nH]1 |  | 3.5 µM |  |
| CCOC(=O)c1cc(-c2sc(-c3cccnc3)nc2COC)n[nH]1 |  | 0.28 µM | MIC [2]: > 64 µg/mL; MIC [3]: > 64 µg/mL; MIC [4]: > 64 µg/mL |
| CCOC(=O)c1cc(-c2sc(-c3cccnc3)nc2C2CCCCC2)n[nH]1 |  | 0.12 µM |  |
| CCOC(=O)c1cc(-c2sc(-c3cccnc3)nc2C)n[nH]1 |  | 0.33 µM |  |
| CCOC(=O)c1cc(-c2sc(-c3cccs3)nc2C)n[nH]1 |  | 2.6 µM |  |
| CC#CCOC(=O)NCc1cc(-c2sc(-c3cccnc3)nc2COC)n[nH]1 | 8 µg/mL (≈ 20.1 µM) | 0.014 µM | Ki [8]: 1.1 µM; Activity [2]: inactive |
| CCNC(=O)c1cc(-c2sc(-c3cccnc3)nc2-c2ccccc2)n[nH]1 | 4 µg/mL (≈ 10.7 µM) | 0.045 µM | inhibition [9]: Active; MIC [6]: 8 µg/mL (≈ 21.3 µM); MIC [7]: 2 µg/mL (≈ 5.33 µM) |
| CCc1cc(-c2sc(-c3cccs3)nc2C)n[nH]1 |  | 4.8 µM |  |
| CCOC(=O)c1cc(-c2sc(-c3cccnc3)nc2C2CC2)n[nH]1 |  | 0.24 µM |  |
| CCNC(=O)c1cc(-c2sc(-c3cccnc3)nc2C)n[nH]1 | > 64 µg/mL | 0.35 µM | MIC [6]: > 64 µg/mL; MIC [7]: > 64 µg/mL |
| CCOC(=O)c1cc(-c2sc(-c3ccccc3)nc2N2CCCCC2)n[nH]1 |  | 0.21 µM | MIC [2]: > 64 µg/mL; MIC [3]: > 64 µg/mL; MIC [4]: > 64 µg/mL |
| CCOC(=O)c1cc(-c2sc(-c3ccccc3)nc2C)n[nH]1 |  | 1.7 µM |  |
| CCOC(=O)c1cc(-c2sc(-c3cccnc3)nc2-c2ccccc2)n[nH]1 |  | 0.07 µM |  |

Now from value to compound, other results behind:

| MIC [5] | Structure (SMILES) | Ki [1] | further results |
| --- | --- | --- | --- |
| > 64 µg/mL | COC(=O)NCc1cc(-c2sc(-c3ccccc3)nc2N2CCC(O)CC2)[nH]n1 | 1.08 µM | Activity [2]: inactive |
| 8 µg/mL (≈ 19.5 µM) | CCNC(=O)c1cc(-c2sc(-c3cccnc3)nc2-c2ccc(Cl)cc2)n[nH]1 | 0.047 µM | MIC [6]: 8 µg/mL (≈ 19.5 µM); MIC [7]: 4 µg/mL (≈ 9.76 µM) |
| > 64 µg/mL | CC#CCOC(=O)NCc1cc(-c2sc(-c3cccnc3)nc2C2CCCCC2)n[nH]1 | < 0.004 µM | Ki [8]: 0.069 µM; Activity [2]: inactive |
| > 64 µg/mL | CCNC(=O)c1cc(-c2sc(-c3cccnc3)nc2[C@H]2CCCCN2)n[nH]1 | 3.4 µM | inhibition [9]: Active; MIC [6]: > 64 µg/mL; MIC [7]: > 64 µg/mL |
| 48 µg/mL (≈ 125 µM) | CCNC(=O)c1cc(-c2sc(-c3cccnc3)nc2[C@@H]2CCCCN2)n[nH]1 | 0.04 µM | inhibition [9]: Active; MIC [6]: 32 µg/mL (≈ 83.7 µM); MIC [7]: 1.5 µg/mL (≈ 3.92 µM) |
| 1 µg/mL (≈ 2.37 µM) | C#CCOC(=O)NCc1cc(-c2sc(-c3cccnc3)nc2N2CCCCC2)[nH]n1 | 0.011 µM | Ki [8]: 0.24 µM; Ratio Ki [10]: 10; Activity [2]: inactive |
| 32 µg/mL (≈ 83.7 µM) | CCNC(=O)c1cc(-c2sc(-c3cccnc3)nc2N2CCCCC2)n[nH]1 | 0.09 µM |  |
| 16 µg/mL (≈ 41.9 µM) | CCNC(=O)c1cc(-c2sc(-c3cccnc3)nc2C2CCCCC2)n[nH]1 | 0.062 µM |  |
| > 64 µg/mL | COC(=O)NCc1cc(-c2sc(-c3cccnc3)nc2N2CCCCC2)n[nH]1 | 0.056 µM | Ki [8]: 0.3 µM; Activity [2]: inactive |
